Measurements as given in paper PMC5343580, “Antimicrobial peptide cWFW kills by combining lipid phase separation with autolysis” (Scientific Reports, 2017).
Converted amounts (≈) assume the structure as drawn. Peptide text beside a SMILES is read from it.

Tests used:
B. subtilis HB5343 = assay type: cell-based, Bacillus subtilis; details: psd::ery (PE-deficient), determined in LB
Experimental: (§1) Cells were inoculated from an overnight culture 1:100 and grown to mid-log phase (OD600 = 0.2–0.4). Unless stated otherwise, all experiments were carried out in LB medium at 37 °C. Cell numbers were determined using a Petroff-Hausser counting chamber: OD600 = 1 corresponds to 8.8 × 10^7 CFU/ml B. subtilis. Further information on strains, conditions of gene induction, and minimal inhibitory concentration are listed in Supplementary Table 4.
(§2) The minimal inhibitory concentration (MIC), which is defined as the lowest concentration able to inhibit growth of a microorganism in vitro[59], was analysed as described before. Briefly, bacteria were grown to mid-log phase and diluted in growth medium to give a final cell number of 5 × 10^5 cells/well in 96 well microtiter plates. A microdilution technique was applied where small volumes of peptide solutions were added in a serial dilution ranging from 100 to 0.05 μM. Cells were cultivated for 18 hours, 37 °C, 180 rpm, followed by photometrical detection of the optical density using a microplate reader (Tecan). Peptide concentrations were tested in triplicates in three independent experiments.

B. subtilis SDB206 = assay type: cell-based, Bacillus subtilis; details: ywiE::neo clsB::spc clsA::ery (CL-deficient), determined in LB
Experimental: as §1, §2

B. subtilis 168 [1] = assay type: cell-based, Bacillus subtilis; details: 168, 18 h
Experimental: as §1, §2

B. subtilis 168 [2] = experiment: ATP measurement (luciferase-based luminescence); assay type: cell-based, Bacillus subtilis; details: 20 min incubation with 4, 8, and 12 μM; p ≥ 0.05; three independent replicates
Experimental: For the determination of cellular ATP levels samples were incubated with increasing concentration of cWFW for 20 min, followed by flash-freeze in liquid N2 in order to stop metabolism. Cell lysis and measurement of cell ATP levels were carried out using ATP bioluminescence Assay Kit HSII (Roche Applied Science) following manufacturer’s instructions using a BMG Fluostar Optima luminometer. The measured luminescence was calibrated with a serial dilution of ATP and triplicate samples were equalised against the optical density of the corresponding cell suspensions.

B. subtilis 168/DSM 402 [3] = experiment: Cytosolic proteome response profile (radioactive pulse-labelling, 2D-PAGE); assay type: cell-based, Bacillus subtilis; details: 8 μM cWFW, BMM
Experimental: To identify which cellular processes are disturbed by cWFW, we performed proteomic profiling of the Gram-positive model organism B. subtilis (Fig. 1). This technique combines radioactive pulse-labeling of newly synthesised proteins with two-dimensional SDS PAGE, thus providing insight into the acute antibiotic stress response.
(§3) B. subtilis 168/DSM402 was grown in chemically defined Belitzky minimal medium (BMM)[61]. Cultures were incubated at 37 °C under steady agitation. Minimal inhibitory concentrations (MIC) were determined as described previously. In growth experiments, exponentially growing cultures were exposed to a concentration range of peptide (Supplementary Figure 1)[62]. For physiological stress experiments, concentrations were chosen that led to 50% reduction of the growth rate. For proteomic profiling, as well as for all follow up experiments performed under the same growth conditions, 8 μM cWFW were used.
Radioactive labelling of newly synthesised proteins and subsequent separation of the cytosolic proteome by two-dimensional polyacrylamide gel electrophoresis (2D-PAGE) was performed as previously described. Analytical gel images were analysed as described by Raatschen & Bandow[63] using Decodon Delta 2D 4.1 image analysis software. […] Protein spots were identified by MALDI-ToF/ToF or nanoUPLC-ESI-MS/MS using a Synapt G2-S HDMS mass spectrometer equipped with a lock spray source for electrospray ionisation and a ToF detector (Waters) as previously reported (Supplementary Tables 2 and 3)[62].

B. subtilis 168/DSM402 = assay type: cell-based, Bacillus subtilis
Experimental: as §3

B. subtilis 168 [4] = experiment: Membrane fluidity in cells (laurdan GP); assay type: cell-based, Bacillus subtilis
From the text: Membrane fluidity was investigated with the small hydrophobic fluorescent dye laurdan, which integrates into cellular membranes and detects changes related to the lipid packing of the surrounding bilayer. The resulting changes in the fluorescence emission spectrum can be detected either spectroscopically or with fluorescence microscopy. A mathematical quantification of the emission shift is achieved by calculation of the laurdan GP (generalised polarisation) with GP = (I435 − I490)⁄(I435 + I490).
B. subtilis 168 cells were grown to OD600 ~ 0.5 in LB/0.1% glucose and incubated with 10 μM laurdan for 5 min, shaking in the dark. […] The supernatant removed from the cells after the last washing step served as background for laurdan fluorescence not associated with cells. […] All samples were shaken briefly before fluorescence detection at 435 ± 5 nm and 490 ± 5 nm (upon excitation at 350 ± 10 nm) on a plate reader (Fluostar Optima, BMG Labtech). Laurdan fluorescence was monitored for at least 20 min. […] Laurdan fluorescence in liposomes was recorded using an LS 50B spectrofluorometer (Perkin-Elmer Corp., Germany). […] Laurdan fluorescence was detected separately at 435 and 500 nm, respectively. The average of three measurements for each preparation was calculated to determine corresponding laurdan GP values. […]

human cells = details: cited from earlier work
From the text: Antimicrobial peptides (AMPs) have been in the focus of research attention as a promising alternative for conventional antibiotics. The subclass of arginine- and tryptophan-rich peptides, with cationic charge and hydrophobic residues, provides the ideal structural prerequisite for interaction with the negatively charged bacterial membranes. To elucidate optimal structure-activity properties we screened a library of small synthetic peptides derived from the active motif of human antimicrobial peptide lactoferricin[3]. This analysis identified the cyclic hexapeptide cWFW (cyclo-RRRWFW) as ...

[5] = tested on: B. subtilis KS19 (ΔlytABCDEF); experiment: Cell lysis (optical density) in autolysin-deficient strain; assay type: cell-based, Bacillus subtilis; details: different concentrations, three replicate cultures
B. subtilis 168 [6] = experiment: Membrane potential measurement with DiSC3(5); assay type: cell-based, Bacillus subtilis
Experimental: Peptide-induced changes in membrane potential were measured using the voltage-sensitive fluorescent dye DiSC3(5). In aqueous solution DiSC3(5) emits strong fluorescence which is quenched upon accumulation in polarised cells. Upon depolarisation, DiSC3(5) is released from the cell resulting in an increased fluorescence due to de-quenching. B. subtilis 168 was grown at 37 °C to mid-log phase and diluted in LB medium to OD600 0.2. After centrifugation for 1 min at 16,500 rpm, the supernatant was removed and cells carefully resuspended in 1 ml fresh pre-warmed LB containing 0.1 mg/ml BSA. Subsequently, 140 μl aliquots of the cell suspension were transferred into a 96 well microtiter plate and allowed to settle. 10 μl of 15 μM DiSC3(5) in LB/15% DMSO were added to the wells to give a final DiSC3(5) concentration of 1 μM. Cellular accumulation (quenching) of DiSC3(5) was monitored until the signal had reached stable fluorescence levels. The peptides were added at desired concentrations at 5 μl/well, and the resulting changes in DiSC3(5) fluorescence were analysed for at least 20 min using a Fluostar Optima, BMG Labtech. Solutions, plates and instruments were warmed to 37 °C prior to use.

B. subtilis 168/DSM 402 [7] = experiment: Ion analysis (ICP-OES); assay type: cell-based, Bacillus subtilis; details: 15 min incubation with 8 μM, BMM, three independent measurements
Experimental: Only metal-free plastic ware and ultrapure water (Bernd Kraft) were used. All centrifugation steps were reduced to 2 min to reduce sample handling time. Cultures were adjusted to OD500 = 0.4 prior to antibiotic exposure to ensure equal cell count in each sample. Samples were prepared as described by Wenzel et al.[13]. Briefly, B. subtilis 168/DSM402 was grown in BMM until early exponential growth phase. For determination of ion concentrations, subcultures were incubated with 8 μM cWFW for 15 min, followed by cell harvest by centrifugation, washed twice in TE buffer (100 mM Tris-HCl, 1 mM EDTA, pH 7.5) and once in the same buffer without EDTA. The obtained cell pellets were digested in 65% nitric acid (Bernd Kraft) at 80 °C for 16 h. Prior to element analysis, samples were diluted with ultrapure water to a final nitric acid concentration of 10%. Element concentrations were determined by inductively-coupled plasma atomic emission spectroscopy using an iCAP* 6300 Duo View ICP Spectrometer (Thermo Fisher Scientific) as described before. […] Element concentrations were converted into intracellular ion concentrations based on the B. subtilis cellular volume, which was taken as 3 × 10^–9 μl based on average rod size determined by cryo-electron microscopy images by Matias and Beveridge[64][65].

`N=C(N)NCCC[C@@H]1NC(=O)[C@H](CCCNC(=N)N)NC(=O)[C@H](Cc2c[nH]c3ccccc23)NC(=O)[C@H](Cc2ccccc2)NC(=O)[C@H](Cc2c[nH]c3ccccc23)NC(=O)[C@H](CCCNC(=N)N)NC1=O` [cWFW, cyclo(RRRWFW)] (cyclo(FWRRRW)) showed an MIC (B. subtilis HB5343) of 6 µM (≈ 5.93 µg/mL), an MIC (B. subtilis SDB206) of 6 µM (≈ 5.93 µg/mL) and an MIC (B. subtilis 168 [1]) of 6 µM (≈ 5.93 µg/mL). The “change of ATP levels” value (B. subtilis 168 [2]) was “No significant changes”, the “induction factor of protein AcsA” value (B. subtilis 168/DSM 402 [3]) was 3.7 and the “induction factor of protein CitZ” value (B. subtilis 168/DSM 402 [3]) was 3.5. The “induction factor of protein ClpC” value (B. subtilis 168/DSM 402 [3]) was 5.4, the “induction factor of protein ClpP” value (B. subtilis 168/DSM 402 [3]) was 4.8 and the “induction factor of protein DltA” value (B. subtilis 168/DSM 402 [3]) was 4.2. The “induction factor of protein Dps” value (B. subtilis 168/DSM 402 [3]) was 5.2, the “induction factor of protein FbaA” value (B. subtilis 168/DSM 402 [3]) was 2.9 and the “induction factor of protein FosB” value (B. subtilis 168/DSM 402 [3]) was 8.3. The “induction factor of protein GroEL” value (B. subtilis 168/DSM 402 [3]) was 3.9, the “induction factor of protein GsiB” value (B. subtilis 168/DSM 402 [3]) was 8.4 and the “induction factor of protein GtaB” value (B. subtilis 168/DSM 402 [3]) was 3.2. The “induction factor of protein IspH” value (B. subtilis 168/DSM 402 [3]) was 19.0, the “induction factor of protein LiaH” value (B. subtilis 168/DSM 402 [3]) was 16.6 and the “induction factor of protein LuxS” value (B. subtilis 168/DSM 402 [3]) was 3.4. The “induction factor of protein MinD” value (B. subtilis 168/DSM 402 [3]) was 3.1, the “induction factor of protein NadE” value (B. subtilis 168/DSM 402 [3]) was 11.0 and the “induction factor of protein NfrA” value (B. subtilis 168/DSM 402 [3]) was 5.7. The “induction factor of protein OhrB” value (B. subtilis 168/DSM 402 [3]) was 4.4, the “induction factor of protein PepF” value (B. subtilis 168/DSM 402 [3]) was 3.6 and the “induction factor of protein PspA” value (B. subtilis 168/DSM 402 [3]) was 9.5. For the same compound, the “induction factor of protein PurH” value (B. subtilis 168/DSM 402 [3]) was 3.4, the “induction factor of protein RacX” value (B. subtilis 168/DSM 402 [3]) was 12.0 and the “induction factor of protein SalA” value (B. subtilis 168/DSM 402 [3]) was 3.5. For the same compound, the “induction factor of protein SodA” value (B. subtilis 168/DSM 402 [3]) was 3.0, the “induction factor of protein SpoVG” value (B. subtilis 168/DSM 402 [3]) was 2.4 and the “induction factor of protein TpiA” value (B. subtilis 168/DSM 402 [3]) was 5.8. For the same compound, the “induction factor of protein Tpx” value (B. subtilis 168/DSM 402 [3]) was 4.1, the “induction factor of protein YceC” value (B. subtilis 168/DSM 402 [3]) was 9.9 and the “induction factor of protein YdaG” value (B. subtilis 168/DSM 402 [3]) was 5.6. The “induction factor of protein YdbD” value (B. subtilis 168/DSM 402 [3]) was 19.4, the “induction factor of protein YfhM” value (B. subtilis 168/DSM 402 [3]) was 5.8 and the “induction factor of protein YjdA” value (B. subtilis 168/DSM 402 [3]) was 3.4. The “induction factor of protein YkaA” value (B. subtilis 168/DSM 402 [3]) was 4.6, the “induction factor of protein YoxD” value (B. subtilis 168/DSM 402 [3]) was 7.1 and the “induction factor of protein YpuA” value (B. subtilis 168/DSM 402 [3]) was 4.0. The “induction factor of protein YqiW” value (B. subtilis 168/DSM 402 [3]) was 2.4, the “induction factor of protein YqkF” value (B. subtilis 168/DSM 402 [3]) was 7.7 and the “induction factor of protein YthP” value (B. subtilis 168/DSM 402 [3]) was 5.9. The “induction factor of protein YvlB” value (B. subtilis 168/DSM 402 [3]) was 9.0, the “induction factor of protein YvyD” value (B. subtilis 168/DSM 402 [3]) was 6.2 and the “induction factor of protein YwjI” value (B. subtilis 168/DSM 402 [3]) was 6.4. The “induction factor of protein YwrO” value (B. subtilis 168/DSM 402 [3]) was 4.3, the MIC (B. subtilis 168/DSM402) was 8 µM (≈ 7.91 µg/mL) and the “time until reduction of membrane fluidity reaches a steady state” value (B. subtilis 168 [4]; 6 μM, time-resolved laurdan GP) was at most 2 min. For the same compound, the “change of laurdan generalised polarisation (GP) in cells” value (B. subtilis 168 [4]; 10 min incubation with increasing concentrations, high GP = low membrane fluidity, three replicates) was “clear concentration-dependent increase in laurdan generalised polarisation (GP)”, the “toxicity towards human cells” value (human cells) was “not toxic towards human cells” and the “lysis triggered by cWFW in the absence of major autolysins LytCDEF” value [5] was “fully abolished”. For the same compound, the “membrane depolarisation (DiSC3(5) fluorescence)” value (B. subtilis 168 [6]; growth-inhibitory concentrations (8 μM) and above, LB, 37 °C, three independent replicates) was “very low compared to that of the positive control KLA-1”, the “time until membrane potential was restored almost to control levels” value (B. subtilis 168 [6]; growth-inhibitory concentrations (8–12 μM)) was at most 10 min and the “change in cellular K+ content” value (B. subtilis 168/DSM 402 [7]) was “accumulation of K^+”. The “leakage of cellular ions” value (B. subtilis 168/DSM 402 [7]) was “no leakage of cellular ions was observed”.
